Legend:
Assay type in all cases: in vivo
[1] = system: Echinochloa oryzacola Vasing.; assay: Test Example 2: herbicidal activity, application during weed generation in submerged conditions; conditions: Eighteenth Table; application herbicide amount 320 g/ha
Summary of the method: (§1)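 Scored three weeks post-application on a 0–5 scale (5: ≥90% herbicidal ratio, almost withered; 0: ≤5%). Plants raised from mixed-sown seed in submerged alluvial soil (4 cm water), 25–30 °C greenhouse; water-diluted emulsion applied onto water surface at one- to two-leaf stage, dose in g/ha.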

Monochoria vaginalis = assay: as above; conditions: Eighteenth Table; application herbicide amount 320 g/ha
Summary of the method: as §1

Scirpus juncoides = assay: as above; conditions: Eighteenth Table; application herbicide amount 320 g/ha
Summary of the method: as §1

Abutilon theophrasti = assay: Test Example 4: herbicidal effect by application to foliage (diluvial soil, plastic box); conditions: for M: herbicidal effect on Abutilon theophrasti: application to foliage, application herbicide amount 320 g/ha; for M (Abutilon theophrasti) herbicidal effect grade: Application herbicide amount 320 g/ha, foliage application
Summary of the method: (§2)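 Seeds sown in sterilized diluvial soil, covered ~1.5 cm, grown 14 days in greenhouse at 25° C. to 30° C. Emulsion formulation diluted in water to set rate (g/ha) and sprayed onto stems and leaves. Effect scored visually 3 weeks later on 0–5 scale (5 = ≥90% herbicidal ratio, 0 = ≤5%).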

Alopecurus myosuroides = assay: as above; conditions: for J: herbicidal effect on Alopecurus myosuroides: application to foliage, application herbicide amount 320 g/ha; for J (Alopecurus myosuroides) herbicidal effect grade: Application herbicide amount 320 g/ha, foliage application
Summary of the method: as §2

Amaranthus retroflexus = assay: as above; conditions: for N: herbicidal effect on Amaranthus retroflexus: application to foliage, application herbicide amount 320 g/ha; for N (Amaranthus retroflexus) herbicidal effect grade: Application herbicide amount 320 g/ha, foliage application
Summary of the method: as §2

Apera spica-venti. = assay: as above; conditions: for L: herbicidal effect on Apera spica-venti.: application to foliage, application herbicide amount 320 g/ha; for L (Apera spica-venti.) herbicidal effect grade: Application herbicide amount 320 g/ha, foliage application
Summary of the method: as §2

Avena fatua = assay: as above; conditions: for I: herbicidal effect on Avena fatua: application to foliage, application herbicide amount 320 g/ha; for I (Avena fatua) herbicidal effect grade: Application herbicide amount 320 g/ha, foliage application
Summary of the method: as §2

Chenopodium album = assay: as above; conditions: for O: herbicidal effect on Chenopodium album: application to foliage, application herbicide amount 320 g/ha; for O (Chenopodium album) herbicidal effect grade: Application herbicide amount 320 g/ha, foliage application
Summary of the method: as §2

Digitaria ciliaris = assay: as above; conditions: for F: herbicidal effect on Digitaria ciliaris: application to foliage, application herbicide amount 320 g/ha; for F (Digitaria ciliaris) herbicidal effect grade: Application herbicide amount 320 g/ha, foliage application
Summary of the method: as §2

[2] = system: Echinochloa crus-galli var. crus-galli; assay: as above; conditions: for H: herbicidal effect on Echinochloa crus-galli var. crus-galli: application to foliage, application herbicide amount 320 g/ha; for H (Echinochloa crus-galli var. crus-galli) herbicidal effect grade: Application herbicide amount 320 g/ha, foliage application
Summary of the method: as §2

Galium spurium = assay: as above; conditions: for Q: herbicidal effect on Galium spurium: application to foliage, application herbicide amount 320 g/ha; for Q (Galium spurium) herbicidal effect grade: Application herbicide amount 320 g/ha, foliage application
Summary of the method: as §2

Lolium multiflorum Lam. = assay: as above; conditions: for K: herbicidal effect on Lolium multiflorum Lam.: application to foliage, application herbicide amount 320 g/ha; for K (Lolium multiflorum Lam.) herbicidal effect grade: Application herbicide amount 320 g/ha, foliage application
Summary of the method: as §2

Stellaria media = assay: as above; conditions: for P: herbicidal effect on Stellaria media: application to foliage, application herbicide amount 320 g/ha; for P (Stellaria media) herbicidal effect grade: Application herbicide amount 320 g/ha, foliage application
Summary of the method: as §2

Veronica persica = assay: as above; conditions: for R: herbicidal effect on Veronica persica: application to foliage, application herbicide amount 320 g/ha; for R (Veronica persica) herbicidal effect grade: Application herbicide amount 320 g/ha, foliage application
Summary of the method: as §2

[3] = system: Beta vulgaris ssp. vulgaris; assay: Test Example 4: effect on crop by application to foliage (diluvial soil, plastic box); conditions: for f: effect on crop, Beta vulgaris ssp. vulgaris: application to foliage, application herbicide amount 320 g/ha; for f (Beta vulgaris ssp. vulgaris) effect on crop grade: Application herbicide amount 320 g/ha, foliage application
Summary of the method: as §2

Brassica campestris L. = assay: as above; conditions: for g: effect on crop, Brassica campestris L.: application to foliage, application herbicide amount 320 g/ha; for g (Brassica campestris L.) effect on crop grade: Application herbicide amount 320 g/ha, foliage application
Summary of the method: as §2

Glycine max = assay: as above; conditions: for d: effect on crop, Glycine max: application to foliage, application herbicide amount 320 g/ha; for d (Glycine max) effect on crop grade: Application herbicide amount 320 g/ha, foliage application
Summary of the method: as §2

Triticum aestivum = assay: as above; conditions: for e: effect on crop, Triticum aestivum: application to foliage, application herbicide amount 320 g/ha; for e (Triticum aestivum) effect on crop grade: Application herbicide amount 320 g/ha, foliage application
Summary of the method: as §2

Zea mays = assay: as above; conditions: for c: effect on crop, Zea mays: application to foliage, application herbicide amount 320 g/ha; for c (Zea mays) effect on crop grade: Application herbicide amount 320 g/ha, foliage application
Summary of the method: as §2

[4] = system: directly sowed Oryza sativa; assay: as above; conditions: for b: effect on crop, directly sowed Oryza sativa: application to foliage, application herbicide amount 320 g/ha; for b (directly sowed Oryza sativa) effect on crop grade: Application herbicide amount 320 g/ha, foliage application
Summary of the method: as §2

SMILES | A (Echinochloa oryzicola Vasing.) herbicidal ratio grade [1] | C (Monochoria vaginalis) herbicidal ratio grade (Monochoria vaginalis) | B (Scirpus juncoides) herbicidal ratio grade (Scirpus juncoides) | M: herbicidal effect on Abutilon theophrasti (Abutilon theophrasti) | J: herbicidal effect on Alopecurus myosuroides (Alopecurus myosuroides) | N: herbicidal effect on Amaranthus retroflexus (Amaranthus retroflexus) | L: herbicidal effect on Apera spica-venti. (Apera spica-venti.) | I: herbicidal effect on Avena fatua (Avena fatua) | O: herbicidal effect on Chenopodium album (Chenopodium album) | F: herbicidal effect on Digitaria ciliaris (Digitaria ciliaris) | H: herbicidal effect on Echinochloa crus-galli var. crus-galli [2] | Q: herbicidal effect on Galium spurium (Galium spurium) | K: herbicidal effect on Lolium multiflorum Lam. (Lolium multiflorum Lam.) | P: herbicidal effect on Stellaria media (Stellaria media) | R: herbicidal effect on Veronica persica (Veronica persica) | f: effect on crop, Beta vulgaris ssp. vulgaris [3] | g: effect on crop, Brassica campestris L. (Brassica campestris L.) | d: effect on crop, Glycine max (Glycine max) | e: effect on crop, Triticum aestivum (Triticum aestivum) | c: effect on crop, Zea mays (Zea mays) | other results
CCCc1nnc2c(C(=O)Nc3nnnn3C)ccc(C(F)(F)F)n12 [2-019] | 4 (Herbicidal ratio of 70% or more and less than 90%) | 4 (Herbicidal ratio of 70% or more and less than 90%) | 3 (Herbicidal ratio of 40% or more and less than 70%) | 5 (Herbicidal ratio of 90% or more (almost completely withered)) | 2 (Herbicidal ratio of 20% or more and less than 40%) | 5 (Herbicidal ratio of 90% or more (almost completely withered)) | 4 (Herbicidal ratio of 70% or more and less than 90%) | 3 (Herbicidal ratio of 40% or more and less than 70%) | 5 (Herbicidal ratio of 90% or more (almost completely withered)) | 5 (Herbicidal ratio of 90% or more (almost completely withered)) | 5 (Herbicidal ratio of 90% or more (almost completely withered)) | 3 (Herbicidal ratio of 40% or more and less than 70%) | 2 (Herbicidal ratio of 20% or more and less than 40%) | 5 (Herbicidal ratio of 90% or more (almost completely withered)) | 5 (Herbicidal ratio of 90% or more (almost completely withered)) | 5 (Herbicidal ratio of 90% or more (almost completely withered)) | 4 (Herbicidal ratio of 70% or more and less than 90%) | 4 (Herbicidal ratio of 70% or more and less than 90%) | 3 (Herbicidal ratio of 40% or more and less than 70%) | 0 (Herbicidal ratio of 5% or less (almost no effect)) | b: effect on crop, directly sowed Oryza sativa [4]: 4 (Herbicidal ratio of 70% or more and less than 90%)
C#CCN(C)c1nnc2c(C(=O)Nc3nnc(C)o3)ccc(C(F)(F)F)n12 [1-152] | 3 (Herbicidal ratio of 40% or more and less than 70%) | 3 (Herbicidal ratio of 40% or more and less than 70%) | 3 (Herbicidal ratio of 40% or more and less than 70%) | – | – | – | – | – | – | – | – | – | – | – | – | – | – | – | – | – | M (Abutilon theophrasti) herbicidal effect grade (Abutilon theophrasti): 3 (Herbicidal ratio of 40% or more and less than 70%); J (Alopecurus myosuroides) herbicidal effect grade (Alopecurus myosuroides): 0 (Herbicidal ratio of 5% or less (almost no effect)); N (Amaranthus retroflexus) herbicidal effect grade (Amaranthus retroflexus): 4 (Herbicidal ratio of 70% or more and less than 90%); L (Apera spica-venti.) herbicidal effect grade (Apera spica-venti.): 1 (Herbicidal ratio of 5% or more and less than 20%); I (Avena fatua) herbicidal effect grade (Avena fatua): 2 (Herbicidal ratio of 20% or more and less than 40%); O (Chenopodium album) herbicidal effect grade (Chenopodium album): 5 (Herbicidal ratio of 90% or more (almost completely withered)); F (Digitaria ciliaris) herbicidal effect grade (Digitaria ciliaris): 4 (Herbicidal ratio of 70% or more and less than 90%); H (Echinochloa crus-galli var. crus-galli) herbicidal effect grade [2]: 4 (Herbicidal ratio of 70% or more and less than 90%); Q (Galium spurium) herbicidal effect grade (Galium spurium): 1 (Herbicidal ratio of 5% or more and less than 20%); K (Lolium multiflorum Lam.) herbicidal effect grade (Lolium multiflorum Lam.): 1 (Herbicidal ratio of 5% or more and less than 20%); P (Stellaria media) herbicidal effect grade (Stellaria media): 4 (Herbicidal ratio of 70% or more and less than 90%); R (Veronica persica) herbicidal effect grade (Veronica persica): 3 (Herbicidal ratio of 40% or more and less than 70%); f (Beta vulgaris ssp. vulgaris) effect on crop grade [3]: 4 (Herbicidal ratio of 70% or more and less than 90%); g (Brassica campestris L.) effect on crop grade (Brassica campestris L.): 1 (Herbicidal ratio of 5% or more and less than 20%); d (Glycine max) effect on crop grade (Glycine max): 3 (Herbicidal ratio of 40% or more and less than 70%); e (Triticum aestivum) effect on crop grade (Triticum aestivum): 0 (Herbicidal ratio of 5% or less (almost no effect)); c (Zea mays) effect on crop grade (Zea mays): 0 (Herbicidal ratio of 5% or less (almost no effect)); b (directly sowed Oryza sativa) effect on crop grade [4]: 0 (Herbicidal ratio of 5% or less (almost no effect))
COc1cc(OC)cc(-c2nnc3c(C(=O)Nc4nnco4)ccc(C(F)(F)F)n23)c1 [1-148] | 5 (Herbicidal ratio of 90% or more (almost completely withered)) | 4 (Herbicidal ratio of 70% or more and less than 90%) | 5 (Herbicidal ratio of 90% or more (almost completely withered)) | – | – | – | – | – | – | – | – | – | – | – | – | – | – | – | – | – | M (Abutilon theophrasti) herbicidal effect grade (Abutilon theophrasti): 3 (Herbicidal ratio of 40% or more and less than 70%); J (Alopecurus myosuroides) herbicidal effect grade (Alopecurus myosuroides): 1 (Herbicidal ratio of 5% or more and less than 20%); N (Amaranthus retroflexus) herbicidal effect grade (Amaranthus retroflexus): 5 (Herbicidal ratio of 90% or more (almost completely withered)); L (Apera spica-venti.) herbicidal effect grade (Apera spica-venti.): 2 (Herbicidal ratio of 20% or more and less than 40%); I (Avena fatua) herbicidal effect grade (Avena fatua): 1 (Herbicidal ratio of 5% or more and less than 20%); O (Chenopodium album) herbicidal effect grade (Chenopodium album): 5 (Herbicidal ratio of 90% or more (almost completely withered)); F (Digitaria ciliaris) herbicidal effect grade (Digitaria ciliaris): 4 (Herbicidal ratio of 70% or more and less than 90%); H (Echinochloa crus-galli var. crus-galli) herbicidal effect grade [2]: 5 (Herbicidal ratio of 90% or more (almost completely withered)); Q (Galium spurium) herbicidal effect grade (Galium spurium): 4 (Herbicidal ratio of 70% or more and less than 90%); K (Lolium multiflorum Lam.) herbicidal effect grade (Lolium multiflorum Lam.): 3 (Herbicidal ratio of 40% or more and less than 70%); P (Stellaria media) herbicidal effect grade (Stellaria media): 5 (Herbicidal ratio of 90% or more (almost completely withered)); R (Veronica persica) herbicidal effect grade (Veronica persica): 5 (Herbicidal ratio of 90% or more (almost completely withered)); f (Beta vulgaris ssp. vulgaris) effect on crop grade [3]: 5 (Herbicidal ratio of 90% or more (almost completely withered)); g (Brassica campestris L.) effect on crop grade (Brassica campestris L.): 4 (Herbicidal ratio of 70% or more and less than 90%); d (Glycine max) effect on crop grade (Glycine max): 3 (Herbicidal ratio of 40% or more and less than 70%); e (Triticum aestivum) effect on crop grade (Triticum aestivum): 0 (Herbicidal ratio of 5% or less (almost no effect)); c (Zea mays) effect on crop grade (Zea mays): 0 (Herbicidal ratio of 5% or less (almost no effect)); b (directly sowed Oryza sativa) effect on crop grade [4]: 3 (Herbicidal ratio of 40% or more and less than 70%)
CCOCc1nnc2c(C(=O)Nc3nnnn3C)ccc(C(F)(F)F)n12 [2-026] | 5 (Herbicidal ratio of 90% or more (almost completely withered)) | 4 (Herbicidal ratio of 70% or more and less than 90%) | 5 (Herbicidal ratio of 90% or more (almost completely withered)) | 5 (Herbicidal ratio of 90% or more (almost completely withered)) | 4 (Herbicidal ratio of 70% or more and less than 90%) | 5 (Herbicidal ratio of 90% or more (almost completely withered)) | 3 (Herbicidal ratio of 40% or more and less than 70%) | 3 (Herbicidal ratio of 40% or more and less than 70%) | 5 (Herbicidal ratio of 90% or more (almost completely withered)) | 5 (Herbicidal ratio of 90% or more (almost completely withered)) | 5 (Herbicidal ratio of 90% or more (almost completely withered)) | 4 (Herbicidal ratio of 70% or more and less than 90%) | 3 (Herbicidal ratio of 40% or more and less than 70%) | 5 (Herbicidal ratio of 90% or more (almost completely withered)) | 5 (Herbicidal ratio of 90% or more (almost completely withered)) | 5 (Herbicidal ratio of 90% or more (almost completely withered)) | 5 (Herbicidal ratio of 90% or more (almost completely withered)) | 5 (Herbicidal ratio of 90% or more (almost completely withered)) | 3 (Herbicidal ratio of 40% or more and less than 70%) | 2 (Herbicidal ratio of 20% or more and less than 40%) | b: effect on crop, directly sowed Oryza sativa [4]: 5 (Herbicidal ratio of 90% or more (almost completely withered))
